Assay results as given in ChEMBL document CHEMBL1144232, “Tricyclic azepine derivatives as selective brain penetrant 5-HT6 receptor antagonists” (Bioorg Med Chem Lett, 2008).

Columns and labels:
[1] = target: T1, 5-hydroxytryptamine receptor 6 (Homo sapiens, UniProt P50406); test: Antagonist activity at 5HT6 receptor expressed in HeLa cells assessed as 5HT-induced cAMP accumulation by chemiluminescence assay; format: functional, cell-based
Cytochrome P450 3A4 [2] = target: T2, Cytochrome P450 3A4 (Homo sapiens, UniProt P08684); test: Inhibition of human CYP3A4 by microtiter plate assays using N-N,diethyl-formamide as substrate
T2 sequence (P08684 whole entry): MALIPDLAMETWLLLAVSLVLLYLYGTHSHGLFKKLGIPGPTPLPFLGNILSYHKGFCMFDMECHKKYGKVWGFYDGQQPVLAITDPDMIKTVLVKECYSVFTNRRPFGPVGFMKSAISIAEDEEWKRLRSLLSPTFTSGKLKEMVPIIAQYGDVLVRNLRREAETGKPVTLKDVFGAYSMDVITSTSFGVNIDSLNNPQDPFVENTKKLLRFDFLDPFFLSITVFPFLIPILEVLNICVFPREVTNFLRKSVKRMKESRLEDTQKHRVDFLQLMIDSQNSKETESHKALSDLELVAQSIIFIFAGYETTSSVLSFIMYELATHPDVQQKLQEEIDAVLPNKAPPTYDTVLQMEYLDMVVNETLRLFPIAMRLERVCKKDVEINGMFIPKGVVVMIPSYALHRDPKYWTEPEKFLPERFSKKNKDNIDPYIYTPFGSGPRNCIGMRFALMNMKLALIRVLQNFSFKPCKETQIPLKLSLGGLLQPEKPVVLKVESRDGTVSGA

Liver microsomes = test: Metabolic stability in rat liver microsomes assessed as intrinsic clearance at […] upto 30 mins; format: ADME, Microsome; settings: 0.5 h
Cytochrome P450 3A4 [3] = target: T2, Cytochrome P450 3A4; test: Inhibition of human CYP3A4 by microtiter plate assays using PPR substrate
[4] = target: T1, 5-hydroxytryptamine receptor 6; test: Antagonist activity at 5HT6 receptor; format: functional
[5] = Ratio of drug level in brain to blood in orally dosed rat after 4 hrs; settings: brain and blood, po
Blood = test: Drug level in rat blood at 1 mg/kg, po; format: ADME, organism-based; set-up: dose 1 mg/kg, route oral; settings: in vivo, read-out: Drug uptake
[6] = target: 5-hydroxytryptamine receptor 2A (Homo sapiens, UniProt P28223); test: Antagonist activity at 5HT2A receptor; format: functional
5-hydroxytryptamine receptor 2A, sequence (P28223 whole entry): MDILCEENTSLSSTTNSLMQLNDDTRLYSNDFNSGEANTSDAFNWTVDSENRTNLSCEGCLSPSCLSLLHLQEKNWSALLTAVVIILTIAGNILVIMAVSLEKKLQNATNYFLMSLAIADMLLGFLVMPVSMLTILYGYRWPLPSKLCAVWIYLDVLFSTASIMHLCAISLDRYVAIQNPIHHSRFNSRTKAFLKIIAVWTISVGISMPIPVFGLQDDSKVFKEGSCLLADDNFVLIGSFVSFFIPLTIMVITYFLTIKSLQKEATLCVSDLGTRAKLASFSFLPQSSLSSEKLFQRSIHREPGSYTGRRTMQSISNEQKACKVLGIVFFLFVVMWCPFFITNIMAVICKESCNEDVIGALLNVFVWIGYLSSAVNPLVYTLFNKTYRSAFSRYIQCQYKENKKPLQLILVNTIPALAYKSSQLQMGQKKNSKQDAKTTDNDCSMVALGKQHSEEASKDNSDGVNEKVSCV

[7] = target: 5-hydroxytryptamine receptor 6 (Rattus norvegicus) (UniProt P31388); test: Ex vivo displacement of [125I]258585 from 5HT6 receptor in po dosed rat striatum; format: organism-based
5-hydroxytryptamine receptor 6 (Rattus norvegicus), sequence (P31388 whole entry): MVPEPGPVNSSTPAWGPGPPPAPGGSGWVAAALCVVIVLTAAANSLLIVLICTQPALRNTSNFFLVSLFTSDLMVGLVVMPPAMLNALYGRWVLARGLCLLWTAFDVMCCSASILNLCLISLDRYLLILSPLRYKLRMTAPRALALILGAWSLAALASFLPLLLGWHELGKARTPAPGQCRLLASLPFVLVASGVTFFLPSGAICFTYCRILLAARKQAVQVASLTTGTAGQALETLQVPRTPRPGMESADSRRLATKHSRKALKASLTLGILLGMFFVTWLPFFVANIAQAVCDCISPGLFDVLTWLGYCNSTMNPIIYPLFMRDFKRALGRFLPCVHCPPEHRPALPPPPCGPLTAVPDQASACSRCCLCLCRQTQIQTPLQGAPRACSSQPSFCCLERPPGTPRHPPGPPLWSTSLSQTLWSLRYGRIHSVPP

[8] = target: 5-hydroxytryptamine receptor 2B (Homo sapiens, UniProt P41595); test: Antagonist activity at 5HT2B receptor; format: functional
5-hydroxytryptamine receptor 2B, sequence (P41595 whole entry): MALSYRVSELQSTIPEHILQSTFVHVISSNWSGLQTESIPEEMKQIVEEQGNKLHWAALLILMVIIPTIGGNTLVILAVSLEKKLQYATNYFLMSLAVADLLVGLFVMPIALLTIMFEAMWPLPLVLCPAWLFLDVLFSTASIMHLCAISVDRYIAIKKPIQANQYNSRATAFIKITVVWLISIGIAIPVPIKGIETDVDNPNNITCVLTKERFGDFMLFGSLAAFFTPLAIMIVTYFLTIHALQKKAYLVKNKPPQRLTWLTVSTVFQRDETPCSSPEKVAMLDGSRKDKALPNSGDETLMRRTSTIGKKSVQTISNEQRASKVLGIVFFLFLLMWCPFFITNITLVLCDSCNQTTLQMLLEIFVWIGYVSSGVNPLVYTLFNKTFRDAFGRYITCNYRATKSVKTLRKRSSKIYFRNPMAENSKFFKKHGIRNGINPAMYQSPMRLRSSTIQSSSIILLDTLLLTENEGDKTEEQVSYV

[9] = target: T3, 5-hydroxytryptamine receptor 2C (Homo sapiens, UniProt P28335); test: Antagonist activity at 5HT2C receptor; format: functional
T3 sequence (P28335 whole entry): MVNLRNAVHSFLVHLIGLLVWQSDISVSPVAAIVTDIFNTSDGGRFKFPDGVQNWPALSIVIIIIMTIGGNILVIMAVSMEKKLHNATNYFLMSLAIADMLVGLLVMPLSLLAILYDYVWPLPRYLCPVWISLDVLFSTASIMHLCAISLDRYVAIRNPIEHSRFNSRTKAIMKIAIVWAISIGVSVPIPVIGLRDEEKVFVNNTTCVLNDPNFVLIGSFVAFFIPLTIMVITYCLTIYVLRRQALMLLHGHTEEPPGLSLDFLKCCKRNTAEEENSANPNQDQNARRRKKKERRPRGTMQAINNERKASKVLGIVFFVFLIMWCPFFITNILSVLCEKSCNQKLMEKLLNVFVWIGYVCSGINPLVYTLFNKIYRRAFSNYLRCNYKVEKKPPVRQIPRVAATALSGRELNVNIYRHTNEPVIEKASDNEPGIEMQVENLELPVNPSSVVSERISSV

T1 sequence (P50406 whole entry): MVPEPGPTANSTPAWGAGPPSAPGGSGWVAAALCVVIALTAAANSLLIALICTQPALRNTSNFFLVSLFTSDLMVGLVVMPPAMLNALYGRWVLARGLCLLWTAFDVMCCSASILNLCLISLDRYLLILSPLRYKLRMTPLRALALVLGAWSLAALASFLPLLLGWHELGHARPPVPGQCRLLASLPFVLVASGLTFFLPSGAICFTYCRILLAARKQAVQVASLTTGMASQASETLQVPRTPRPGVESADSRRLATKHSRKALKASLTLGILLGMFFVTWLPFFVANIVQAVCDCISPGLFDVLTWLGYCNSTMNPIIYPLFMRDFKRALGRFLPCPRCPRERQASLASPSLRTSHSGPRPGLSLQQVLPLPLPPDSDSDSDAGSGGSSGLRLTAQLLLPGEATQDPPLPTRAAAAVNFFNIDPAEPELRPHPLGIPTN

SMILES | Ki [1] [nM] | IC50 (Cytochrome P450 3A4 [2]) [nM] | CL (Liver microsomes) [mL/min/g] | IC50 (Cytochrome P450 3A4 [3]) [nM] | further results
O=S(=O)(c1ccc(Cl)cc1)n1ccc2cc3c(cc21)CCNCC3 | 7.94 | – | – | – | –
COc1cccc(S(=O)(=O)n2ccc3cc4c(cc32)CCNCC4)c1 | 2 | 17000 | 2.7 | 27000 | –
O=S(=O)(c1cccc(Cl)c1)n1cc(Cl)c2cc3c(cc21)CCNCC3 | 3.98 | – | < 0.5 | – | –
O=S(=O)(Nc1ccc2c(c1)CCNCC2)c1ccccc1 | – | – | – | – | Ki [4]: 2 nM; Kp at 4 h [5]: 0.5
CN1CCc2cc3ccn(S(=O)(=O)c4cccc(Cl)c4)c3cc2CC1 | 1.26 | 15000 | 22 | 71000 | –
O=S(=O)(c1cccc(Cl)c1)n1ccc2cc3c(cc21)CCNCC3 | 1.58 | 3000 | 2.5 | 7000 | Kp at 4 h [5]: 5; concentration (Blood): 38 nM
O=S(=O)(c1ccccc1)n1ccc2cc3c(cc21)CCNCC3 | 1.58 | 12000 | 7.1 | 20000 | –
O=S(=O)(c1ccccc1Cl)n1ccc2cc3c(cc21)CCNCC3 | 7.94 | 2500 | 4.5 | 3200 | –
O=S(=O)(c1ccccc1)n1cc(Cl)c2cc3c(cc21)CCNCC3 | 2.51 | 12000 | 1.7 | 19000 | Ki [6]: 25.1 nM; ED50 [7]: 4 mg/kg; Ki [8]: 398 nM; Ki [9]: 158 nM

More lines, in order of falling Ki [1], values ahead:

Ki [1] [nM] | IC50 (Cytochrome P450 3A4 [2]) [nM] | CL (Liver microsomes) [mL/min/g] | IC50 (Cytochrome P450 3A4 [3]) [nM] | SMILES | further results
100 | 39000 | 3.6 | 77000 | O=S(=O)(c1ccccn1)n1ccc2cc3c(cc21)CCNCC3 | –
39.8 | – | – | – | O=S(=O)(c1ccccc1)N1CCCc2cc3c(cc21)CCNCC3 | –
7.94 | 9700 | 21 | 22000 | O=S(=O)(c1ccsc1)n1ccc2cc3c(cc21)CCNCC3 | –
2 | 7800 | 4.6 | 13000 | Cn1cc(S(=O)(=O)c2ccccc2)c2cc3c(cc21)CCNCC3 | –
